#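 Dose response: 5 concentrations. Exposure: 48 h. Format: 96-well plates. Endpoint: linear interpolation; highest concentration if not reached. The concentration for full growth arrest is given as TGI.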
# Legend:
# Experiment in all cases: DTP human tumour cell line panel, 48 h
# 786-0 renal = test system: 786-0 renal
# TK-10 renal = test system: TK-10 renal
# A498 renal = test system: A498 renal
# UACC-62 melanoma = test system: UACC-62 melanoma
# SF-295 CNS = test system: SF-295 CNS
# PC-3 prostate = test system: PC-3 prostate
# UO-31 renal = test system: UO-31 renal
# IGROV1 ovarian = test system: IGROV1 ovarian
# NCI-H226 lung = test system: NCI-H226 lung
# MCF7 breast = test system: MCF7 breast
# MDA-MB-231 breast = test system: MDA-MB-231 breast
# MDA-MB-435 = test system: MDA-MB-435
# NCI/ADR-RES ovarian = test system: NCI/ADR-RES ovarian
# OVCAR-5 ovarian = test system: OVCAR-5 ovarian
# SK-MEL-28 melanoma = test system: SK-MEL-28 melanoma
# LOX IMVI melanoma = test system: LOX IMVI melanoma
# SF-268 CNS = test system: SF-268 CNS
# HT29 colon = test system: HT29 colon
# NCI-H23 lung = test system: NCI-H23 lung
# ACHN renal = test system: ACHN renal
# HCT-116 colon = test system: HCT-116 colon
# MALME-3M melanoma = test system: MALME-3M melanoma
# BT-549 breast = test system: BT-549 breast
# NCI-H460 lung = test system: NCI-H460 lung
# CAKI-1 renal = test system: CAKI-1 renal
# HOP-92 NSCLC = test system: HOP-92 NSCLC
# HS 578T breast = test system: HS 578T breast
# SF-539 CNS = test system: SF-539 CNS
# MDA-N = test system: MDA-N
# MOLT-4 leukemia = test system: MOLT-4 leukemia
# HCT-15 colon = test system: HCT-15 colon
# CCRF-CEM leukemia = test system: CCRF-CEM leukemia
# HCC-2998 colon = test system: HCC-2998 colon
# SN12C renal = test system: SN12C renal
# M14 melanoma = test system: M14 melanoma
# SK-OV-3 ovarian = test system: SK-OV-3 ovarian
# EKVX NSCLC = test system: EKVX NSCLC
# HOP-62 NSCLC = test system: HOP-62 NSCLC
# SK-MEL-2 melanoma = test system: SK-MEL-2 melanoma
# COLO 205 colon = test system: COLO 205 colon
# RPMI-8226 leukemia = test system: RPMI-8226 leukemia
# HL-60(TB) leukemia = test system: HL-60(TB) leukemia
# U251 CNS = test system: U251 CNS
# OVCAR-4 ovarian = test system: OVCAR-4 ovarian
# RXF 393 renal = test system: RXF 393 renal
# SR leukemia = test system: SR leukemia
# SK-MEL-5 melanoma = test system: SK-MEL-5 melanoma
# DU-145 prostate = test system: DU-145 prostate
# OVCAR-8 ovarian = test system: OVCAR-8 ovarian
# OVCAR-3 ovarian = test system: OVCAR-3 ovarian
# SNB-75 CNS = test system: SNB-75 CNS
# T-47D breast = test system: T-47D breast
# KM12 colon = test system: KM12 colon
# A549 NSCLC = test system: A549 NSCLC
# NCI-H522 lung = test system: NCI-H522 lung
# SW-620 colon = test system: SW-620 colon
# K-562 leukemia = test system: K-562 leukemia
# SNB-19 CNS = test system: SNB-19 CNS
# UACC-257 melanoma = test system: UACC-257 melanoma
structure (smiles),measurement,setting,value
CCOc1ccccc1N=NC1C(=O)N(C(=O)CC(=O)Nc2ccccc2Cl)N=C1C (stereo not given),TGI,786-0 renal,> 100 µM
same,TGI,TK-10 renal,> 100 µM
same,TGI,A498 renal,> 100 µM
same,TGI,UACC-62 melanoma,> 100 µM
same,TGI,SF-295 CNS,> 100 µM
same,TGI,PC-3 prostate,> 100 µM
same,TGI,UO-31 renal,> 100 µM
same,TGI,IGROV1 ovarian,> 100 µM
same,TGI,NCI-H226 lung,> 100 µM
same,TGI,MCF7 breast,> 100 µM
same,TGI,MDA-MB-231 breast,> 100 µM
same,TGI,MDA-MB-435,> 100 µM
same,TGI,NCI/ADR-RES ovarian,> 100 µM
same,TGI,OVCAR-5 ovarian,> 100 µM
same,TGI,SK-MEL-28 melanoma,> 100 µM
same,TGI,LOX IMVI melanoma,> 100 µM
same,TGI,SF-268 CNS,> 100 µM
same,TGI,HT29 colon,> 100 µM
same,TGI,NCI-H23 lung,> 100 µM
same,TGI,ACHN renal,> 100 µM
same,TGI,HCT-116 colon,> 100 µM
same,TGI,MALME-3M melanoma,> 100 µM
same,TGI,BT-549 breast,> 100 µM
same,TGI,NCI-H460 lung,> 100 µM
same,TGI,CAKI-1 renal,> 100 µM
same,TGI,HOP-92 NSCLC,70 µM
same,TGI,HS 578T breast,89 µM
same,TGI,SF-539 CNS,> 100 µM
same,TGI,MDA-N,> 100 µM
same,TGI,MOLT-4 leukemia,> 100 µM
same,TGI,HCT-15 colon,> 100 µM
same,TGI,CCRF-CEM leukemia,> 100 µM
same,TGI,HCC-2998 colon,> 100 µM
same,TGI,SN12C renal,> 100 µM
same,TGI,M14 melanoma,> 100 µM
same,TGI,SK-OV-3 ovarian,90.3 µM
same,TGI,EKVX NSCLC,80.9 µM
same,TGI,HOP-62 NSCLC,68.8 µM
same,TGI,SK-MEL-2 melanoma,> 100 µM
same,TGI,COLO 205 colon,> 100 µM
same,TGI,RPMI-8226 leukemia,> 100 µM
same,TGI,HL-60(TB) leukemia,> 100 µM
same,TGI,U251 CNS,> 100 µM
same,TGI,OVCAR-4 ovarian,> 100 µM
same,TGI,RXF 393 renal,> 100 µM
same,TGI,SR leukemia,> 100 µM
same,TGI,SK-MEL-5 melanoma,> 100 µM
same,TGI,DU-145 prostate,> 100 µM
same,TGI,OVCAR-8 ovarian,> 100 µM
same,TGI,OVCAR-3 ovarian,> 100 µM
same,TGI,SNB-75 CNS,> 100 µM
same,TGI,T-47D breast,> 100 µM
same,TGI,KM12 colon,> 100 µM
same,TGI,A549 NSCLC,> 100 µM
same,TGI,NCI-H522 lung,> 100 µM
same,TGI,SW-620 colon,> 100 µM
COc1ccc(C(=O)N=C2N(c3ccccc3)C(=Nc3ccccc3)C(=Nc3ccccc3)N2c2ccccc2)cc1,TGI,786-0 renal,59.5 µM
same,TGI,TK-10 renal,> 61.2 µM
same,TGI,A498 renal,61.1 µM
same,TGI,UACC-62 melanoma,> 100 µM
same,TGI,SF-295 CNS,> 100 µM
same,TGI,PC-3 prostate,> 65.5 µM
same,TGI,UO-31 renal,> 100 µM
same,TGI,IGROV1 ovarian,> 100 µM
same,TGI,NCI-H226 lung,> 100 µM
same,TGI,MCF7 breast,> 100 µM
same,TGI,MDA-MB-231 breast,> 100 µM
same,TGI,MDA-MB-435,> 100 µM
same,TGI,K-562 leukemia,> 100 µM
same,TGI,NCI/ADR-RES ovarian,> 100 µM
same,TGI,OVCAR-5 ovarian,> 100 µM
same,TGI,SK-MEL-28 melanoma,> 66.6 µM
same,TGI,LOX IMVI melanoma,> 100 µM
same,TGI,SF-268 CNS,> 100 µM
same,TGI,HT29 colon,> 100 µM
same,TGI,NCI-H23 lung,> 100 µM
same,TGI,ACHN renal,> 100 µM
same,TGI,HCT-116 colon,> 100 µM
same,TGI,MALME-3M melanoma,> 58.3 µM
same,TGI,BT-549 breast,> 58.2 µM
same,TGI,NCI-H460 lung,> 100 µM
same,TGI,CAKI-1 renal,> 100 µM
same,TGI,HOP-92 NSCLC,15 µM
same,TGI,HS 578T breast,96.5 µM
same,TGI,SF-539 CNS,> 100 µM
same,TGI,MDA-N,> 100 µM
same,TGI,MOLT-4 leukemia,> 100 µM
same,TGI,HCT-15 colon,> 100 µM
same,TGI,SNB-19 CNS,> 100 µM
same,TGI,CCRF-CEM leukemia,> 100 µM
same,TGI,HCC-2998 colon,> 100 µM
same,TGI,SN12C renal,> 100 µM
same,TGI,M14 melanoma,> 65.2 µM
same,TGI,SK-OV-3 ovarian,> 100 µM
same,TGI,EKVX NSCLC,> 100 µM
same,TGI,HOP-62 NSCLC,57.5 µM
same,TGI,SK-MEL-2 melanoma,98.1 µM
same,TGI,COLO 205 colon,> 100 µM
same,TGI,RPMI-8226 leukemia,> 100 µM
same,TGI,HL-60(TB) leukemia,> 100 µM
same,TGI,U251 CNS,> 87.9 µM
same,TGI,OVCAR-4 ovarian,87.3 µM
same,TGI,RXF 393 renal,25.8 µM
same,TGI,SR leukemia,> 100 µM
same,TGI,SK-MEL-5 melanoma,> 56.7 µM
same,TGI,DU-145 prostate,> 100 µM
same,TGI,OVCAR-8 ovarian,> 100 µM
same,TGI,OVCAR-3 ovarian,> 100 µM
same,TGI,SNB-75 CNS,27.2 µM
same,TGI,T-47D breast,> 100 µM
same,TGI,KM12 colon,> 100 µM
same,TGI,UACC-257 melanoma,> 100 µM
same,TGI,A549 NSCLC,> 100 µM
same,TGI,NCI-H522 lung,> 100 µM
same,TGI,SW-620 colon,> 100 µM

# Source: PubChem BioAssay (NCI)
